Measured values published in the supplement of paper PMC10307832.

How the values were obtained:
Assay in all cases: relative viability (nuclei count vs DMSO), 5 days (fraction); higher = more cells survive
[1] = compound: CO[C@H]1C[C@@H]2CC[C@@H](C)[C@@](O)(O2)C(=O)C(=O)N2CCCC[C@H]2C(=O)O[C@H]([C@H](C)C[C@@H]2CC[C@@H](OCCO)[C@H](OC)C2)CC(=O)[C@H](C)/C=C(\C)[C@@H](O)[C@@H](OC)C(=O)[C@H](C)C[C@H](C)/C=C/C=C/C=C/1C [Everolimus] + O=C(CCCCCCC(=O)Nc1ccccc1)NO [Vorinostat] (partner 1 µM)
Outline: (§1)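 Each reported value is a median over duplicate plates. It expresses relative viability: treated-well nuclei count divided by vehicle-well nuclei count. Lung cancer cell lines in 1536-well plates were dosed by pin tool a day after seeding, alone with one drug or with a fixed anchor-drug dose plus five library-drug doses (not always all listed) in √10 steps, and nuclei were counted after 5 days.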

[2] = compound: CO[C@H]1C[C@@H]2CC[C@@H](C)[C@@](O)(O2)C(=O)C(=O)N2CCCC[C@H]2C(=O)O[C@H]([C@H](C)C[C@@H]2CC[C@@H](OCCO)[C@H](OC)C2)CC(=O)[C@H](C)/C=C(\C)[C@@H](O)[C@@H](OC)C(=O)[C@H](C)C[C@H](C)/C=C/C=C/C=C/1C [Everolimus] + Nc1nc2[nH]cc(CCc3ccc(C(=O)N[C@@H](CCC(=O)O)C(=O)O)cc3)c2c(=O)[nH]1 [Pemetrexed] (partner 0.2 µM)
Outline: as §1

[3] = compound: CO[C@H]1C[C@@H]2CC[C@@H](C)[C@@](O)(O2)C(=O)C(=O)N2CCCC[C@H]2C(=O)O[C@H]([C@H](C)C[C@@H]2CC[C@@H](OCCO)[C@H](OC)C2)CC(=O)[C@H](C)/C=C(\C)[C@@H](O)[C@@H](OC)C(=O)[C@H](C)C[C@H](C)/C=C/C=C/C=C/1C [Everolimus] + Cc1nc(Nc2ncc(C(=O)Nc3c(C)cccc3Cl)s2)cc(N2CCN(CCO)CC2)n1 [Dasatinib] (partner 0.075 µM)
Outline: as §1

[4] = compound: CO[C@H]1C[C@@H]2CC[C@@H](C)[C@@](O)(O2)C(=O)C(=O)N2CCCC[C@H]2C(=O)O[C@H]([C@H](C)C[C@@H]2CC[C@@H](OCCO)[C@H](OC)C2)CC(=O)[C@H](C)/C=C(\C)[C@@H](O)[C@@H](OC)C(=O)[C@H](C)C[C@H](C)/C=C/C=C/C=C/1C [Everolimus] + CC(=O)c1c(C)c2cnc(Nc3ccc(N4CCNCC4)cn3)nc2n(C2CCCC2)c1=O [Palbociclib] (partner 0.5 µM)
Outline: as §1

Cell Line	relative viability ([1]; first compound 0.01 µM)	relative viability ([1]; first compound 0.03162 µM)	relative viability ([1]; first compound 0.1 µM)	relative viability ([1]; first compound 0.3162 µM)	relative viability ([1]; first compound 1 µM)	relative viability ([2]; first compound 0.01 µM)	relative viability ([2]; first compound 0.03162 µM)	relative viability ([2]; first compound 0.1 µM)	relative viability ([2]; first compound 0.3162 µM)	relative viability ([2]; first compound 1 µM)	relative viability ([3]; first compound 0.01 µM)	relative viability ([3]; first compound 0.03162 µM)	relative viability ([3]; first compound 0.1 µM)	relative viability ([3]; first compound 0.3162 µM)	relative viability ([3]; first compound 1 µM)	relative viability ([4]; first compound 0.01 µM)	relative viability ([4]; first compound 0.03162 µM)	relative viability ([4]; first compound 0.1 µM)	relative viability ([4]; first compound 0.3162 µM)	relative viability ([4]; first compound 1 µM)
NCI-H1651	0.424	0.418	0.36	0.449	0.405	0.398	0.386	0.423	0.41	0.433	0.297	0.335	0.259	0.24	0.405	0.474	0.405	0.363	0.351	0.341
NCI-H1666	1.04	1.08	1.04	1.05	0.92	0.884	0.859	0.93	0.885	0.825	0.826	0.722	0.795	0.78	0.813	0.567	0.642	0.599	0.693	0.631
NCI-H1734	0.613	0.606	0.505	0.422	0.563	0.407	0.435	0.461	0.385	0.406	0.276	0.301	0.265	0.266	0.316	0.285	0.241	0.288	0.251	0.258
NCI-H1755	0.616	0.599	0.61	0.568	0.602	0.468	0.484	0.512	0.438	0.448	0.421	0.232	0.37	0.419	0.318	0.407	0.395	0.378	0.361	0.356
NCI-H1793	0.344	0.288	0.322	0.356	0.251	0.373	0.332	0.319	0.351	0.251	0.23	0.256	0.209	0.214	0.162	0.219	0.19	0.246	0.214	0.166
NCI-H1915	0.389	0.387	0.431	0.37	0.364	0.484	0.481	0.469	0.499	0.432	0.285	0.231	0.208	0.247	0.206	0.398	0.347	0.316	0.378	0.334
NCI-H1944	0.373	0.376	0.315	0.44	0.336	0.497	0.545	0.393	0.489	0.404	0.179	0.193	0.157	0.184	0.157	0.214	0.195	0.196	0.23	0.202
